From the supplement of paper PMC10307832

Columns and labels:
Assay in all cases: relative viability (nuclei count vs DMSO), 5 days (fraction); higher = more cells survive
Irinotecan + Olaparib = compound: CCc1c2c(nc3ccc(OC(=O)N4CCC(N5CCCCC5)CC4)cc13)-c1cc3c(c(=O)n1C2)COC(=O)[C@]3(O)CC [Irinotecan] + O=C(c1cc(Cc2n[nH]c(=O)c3ccccc23)ccc1F)N1CCN(C(=O)C2CC2)CC1 [Olaparib] (partner 8 µM)
How it was run: (§1)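 Dosing by pin tool came one day after lung cancer cell lines were seeded in 1536-well plates, using either one drug or a fixed anchor-drug dose plus five library-drug doses (not always all listed) in √10 steps. After 5 days, nuclei were counted on 4× images. Relative viability is treated-well nuclei count divided by vehicle-well nuclei count, and values are medians of duplicate plates.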

RU-SKI 43 + Decitabine = compound: CC[C@@H](C)CNCC(=O)N1CCC2=C([C@@H]1COC3=CC=CC(=C3)C)C=CS2 [RU-SKI 43] + Nc1ncn([C@H]2C[C@H](O)[C@@H](CO)O2)c(=O)n1 [Decitabine] (partner 2 µM)
How it was run: as §1

MK-8033 + Crizotinib = compound: Cn1cc(-c2cnc3ccc4ccc(CS(=O)(=O)NCc5ccccn5)cc4c(=O)c3c2)cn1 [MK-8033] + C[C@@H](Oc1cc(-c2cnn(C3CCNCC3)c2)cnc1N)c1c(Cl)ccc(F)c1Cl [Crizotinib] (partner 1 µM)
How it was run: as §1

MK-8033 + Linsitinib = compound: Cn1cc(-c2cnc3ccc4ccc(CS(=O)(=O)NCc5ccccn5)cc4c(=O)c3c2)cn1 [MK-8033] + C[C@]1(O)C[C@@H](c2nc(-c3ccc4ccc(-c5ccccc5)nc4c3)c3c(N)nccn32)C1 [Linsitinib] (partner 1 µM)
How it was run: as §1

Cell Line | relative viability (Irinotecan + Olaparib; first compound 0.6325 µM) | relative viability (Irinotecan + Olaparib; first compound 2 µM) | relative viability (Irinotecan + Olaparib; first compound 6.325 µM) | relative viability (Irinotecan + Olaparib; first compound 20 µM) | relative viability (RU-SKI 43 + Decitabine; first compound 0.1 µM) | relative viability (RU-SKI 43 + Decitabine; first compound 0.3162 µM) | relative viability (RU-SKI 43 + Decitabine; first compound 1 µM) | relative viability (RU-SKI 43 + Decitabine; first compound 3.162 µM) | relative viability (RU-SKI 43 + Decitabine; first compound 10 µM) | relative viability (MK-8033 + Crizotinib; first compound 0.02 µM) | relative viability (MK-8033 + Crizotinib; first compound 0.06325 µM) | relative viability (MK-8033 + Crizotinib; first compound 0.2 µM) | relative viability (MK-8033 + Crizotinib; first compound 0.6325 µM) | relative viability (MK-8033 + Crizotinib; first compound 2 µM) | relative viability (MK-8033 + Linsitinib; first compound 0.02 µM) | relative viability (MK-8033 + Linsitinib; first compound 0.06325 µM) | relative viability (MK-8033 + Linsitinib; first compound 0.2 µM) | relative viability (MK-8033 + Linsitinib; first compound 0.6325 µM) | relative viability (MK-8033 + Linsitinib; first compound 2 µM)
LK-2 | 0.481 | 0.426 | 0.201 | 0.235 | 0.317 | 0.279 | 0.408 | 0.298 | 0.246 | 0.228 | 0.226 | 0.244 | 0.23 | 0.25 | 0.642 | 0.509 | 0.527 | 0.317 | 0.508
LOU-NH91 | 0.712 | 0.477 | 0.321 | 0.153 | 0.786 | 0.828 | 0.809 | 0.805 | 0.824 | 0.724 |  | 0.715 | 0.732 | 0.75 | 0.93 |  | 0.912 | 0.89 | 0.992
LU99A | 0.126 | 0.126 | 0.119 | 0.15 | 0.746 | 1.1 | 1.05 | 0.91 | 0.711 | 0.692 | 0.542 | 0.619 | 0.491 | 0.525 | 0.541 | 0.517 | 0.537 | 0.479 | 0.478
LXF-289 | 0.211 | 0.215 | 0.162 | 0.158 | 0.373 | 0.357 | 0.384 | 0.41 | 0.388 | 0.738 | 0.77 | 0.777 | 0.819 | 0.773 | 0.926 | 0.944 | 1.01 | 0.96 | 0.976
NCI-H23 | 0.245 | 0.254 | 0.207 | 0.2 | 0.309 | 0.319 | 0.326 | 0.291 | 0.335 | 0.446 | 0.391 | 0.487 | 0.468 | 0.552 | 0.508 | 0.576 | 0.407 | 0.599 | 0.508
NCI-H322M | 0.135 | 0.642 | 0.538 | 0.235 | 0.631 | 0.673 | 0.717 | 0.689 | 0.65 | 0.855 | 0.778 | 0.835 | 0.939 | 0.954 | 0.964 | 0.809 | 0.869 | 0.996 | 0.692
NCI-H358 | 0.215 | 0.286 | 0.158 | 0.109 | 0.199 | 0.184 | 0.248 | 0.217 | 0.19 | 0.493 | 0.503 | 0.595 | 0.434 | 0.508 | 0.826 | 0.704 | 0.731 | 0.658 | 0.651
NCI-H441 | 0.243 | 0.241 | 0.256 | 0.229 | 0.212 | 0.238 | 0.228 | 0.229 | 0.223 | 0.753 | 0.646 | 0.681 | 0.778 | 0.691 | 0.505 | 0.401 | 0.54 | 0.551 | 0.53
NCI-H460 |  | 0.214 | 0.0942 | 0.125 | 0.446 | 0.698 | 0.547 | 0.475 | 0.379 | 0.949 | 0.793 | 0.879 | 0.822 | 0.844 | 0.903 | 0.702 | 0.686 | 0.85 | 0.684
NCI-H520 | 0.23 | 0.277 | 0.309 | 0.145 | 0.502 | 0.564 | 0.568 | 0.589 | 0.501 | 0.797 | 0.678 | 0.663 | 0.59 | 0.78 | 0.994 | 0.876 | 0.844 | 0.925 | 0.991
NCI-H596 | 0.638 | 0.707 | 0.64 | 0.828 | 1.08 | 1.04 | 0.91 | 1.16 | 1.07 | 0.913 | 0.941 | 0.921 | 0.991 | 1.01 | 0.978 | 1.1 | 1.04 | 1.1 | 1.09
NCI-H647 | 0.194 | 0.205 | 0.14 | 0.0986 | 0.383 | 0.404 | 0.393 | 0.43 | 0.353 | 1.03 | 0.891 | 0.959 | 0.919 | 0.928 | 1.17 | 0.88 | 0.994 | 1.14 | 1.04
NCI-H650 | 0.181 | 0.199 | 0.185 | 0.198 | 0.281 | 0.335 |  | 0.311 | 0.312 | 0.648 | 0.753 | 1 | 0.778 | 0.712 | 0.868 | 0.91 | 0.85 | 0.805 | 0.773
NCI-H661 | 0.583 | 0.556 | 0.396 | 0.233 | 0.483 | 0.603 | 0.588 | 0.557 | 0.465 | 0.991 |  | 1.02 | 0.948 | 0.903 | 0.55 | 0.5 | 0.53 | 0.59 | 0.507
NCI-H727 | 0.723 | 0.454 | 0.66 | 0.656 |  | 0.805 | 0.882 | 0.834 | 0.972 | 0.811 | 0.677 | 0.754 | 0.886 | 0.792 | 0.284 | 0.275 | 0.253 | 0.3 | 0.266
NCI-H838 | 0.632 | 0.441 | 0.238 | 0.18 | 0.416 | 0.489 | 0.469 | 0.429 | 0.444 | 0.807 | 0.757 | 0.884 | 0.804 | 0.787 | 0.988 | 0.98 | 0.985 | 0.98 | 0.953
NCI-H1355 |  | 0.321 | 0.278 | 0.209 | 0.351 | 0.378 | 0.348 | 0.348 | 0.354 | 1.07 | 0.988 | 1.03 | 1.05 | 1.02 | 0.735 | 0.7 | 0.762 | 0.795 | 0.828
